According to patent publication US8138189B2, “Substituted benzene compounds as modulators of the glucocorticoid receptor” (Hoffman-La Roche Inc., priority 2009, dated 2012):

molecular target: T1, full length human recombinant glucocorticoid receptor (Homo sapiens, UniProt P04150); assay: Glucocorticoid Receptor Binding Assay (fluorescence polarization competitor assay, Fluormone GS Far Red tracer)
T1 construct: partially purified full length human recombinant glucocorticoid receptor; purchased Panvera/Invitrogen PV4302
T1 sequence (P04150 1-777): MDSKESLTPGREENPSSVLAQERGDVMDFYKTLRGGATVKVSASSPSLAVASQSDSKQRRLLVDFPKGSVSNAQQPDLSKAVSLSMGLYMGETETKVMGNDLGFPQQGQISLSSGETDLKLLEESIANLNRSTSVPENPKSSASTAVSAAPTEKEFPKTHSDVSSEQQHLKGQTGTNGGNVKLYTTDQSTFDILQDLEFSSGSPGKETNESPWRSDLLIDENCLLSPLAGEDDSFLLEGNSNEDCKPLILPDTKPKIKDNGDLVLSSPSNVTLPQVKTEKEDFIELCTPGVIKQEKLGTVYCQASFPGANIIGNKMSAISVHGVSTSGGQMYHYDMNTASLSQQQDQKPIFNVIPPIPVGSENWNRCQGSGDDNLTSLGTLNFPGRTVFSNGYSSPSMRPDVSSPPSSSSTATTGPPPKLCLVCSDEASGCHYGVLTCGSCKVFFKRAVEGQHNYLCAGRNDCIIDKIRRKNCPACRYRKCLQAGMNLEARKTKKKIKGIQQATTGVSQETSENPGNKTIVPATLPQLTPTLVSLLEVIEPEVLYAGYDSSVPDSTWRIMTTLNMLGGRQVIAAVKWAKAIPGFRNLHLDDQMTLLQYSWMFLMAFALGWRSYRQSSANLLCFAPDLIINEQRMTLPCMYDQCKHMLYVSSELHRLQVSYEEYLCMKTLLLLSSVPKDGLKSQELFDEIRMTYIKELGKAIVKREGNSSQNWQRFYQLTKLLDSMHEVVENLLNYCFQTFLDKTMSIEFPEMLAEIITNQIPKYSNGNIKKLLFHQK
Procedure, shortened: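 Partially purified full-length recombinant human GR with a stabilizing coactivator peptide was incubated with Fluormone GS Far Red tracer and serially diluted compound for 3 h at 22 °C in the dark, pH 7.4. Fluorescence polarization was read at 610-660 nm. IC50 came from sigmoidal fitting, and Ki from Cheng-Prusoff.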

Row | Structure (SMILES) | Ki
1 | C[C@H](c1ccc(COc2cnc(C(=O)O)cn2)cc1Cl)[C@@](O)(c1ccnc(Cl)c1)C(F)(F)F (stereo in doubt) [Example 121, 5-{3-Chloro-4-[2-(2-chloro-pyridin-4-yl)-3,3,3-trifluoro-2-hydroxy-1-methyl-propyl]-benzyloxy}-pyrazine-2-carboxylic acid] | 18.8 nM
2 | Cc1cnc(C(O)(C(C)c2ccc(OCc3ccc(C(=O)O)cc3)cc2Cl)C(F)(F)F)cn1 (centres unmarked) [Example 2, 4-{3-Chloro-4-[3,3,3-trifluoro-2-hydroxy-1-methyl-2-(5-methyl-pyrazin-2-yl)-propyl]-phenoxymethyl}-benzoic acid] | 21.5 nM
3 | COC(=O)c1ccc(Oc2ccc([C@H](C)[C@](O)(c3cc(C)c(=O)n(C)c3)C(F)(F)F)c(Cl)c2)cc1Cl (stereo in doubt) [Example 207, 2-Chloro-4-{3-chloro-4-[2-(1,5-dimethyl-6-oxo-1,6-dihydro-pyridin-3-yl)-3,3,3-trifluoro-2-hydroxy-1-methyl-propyl]-phenoxy}-benzoic acid methyl ester] | 0.9 nM
4 | C[C@H](c1ccc(-c2ccc(F)c(C(=O)O)c2)cc1Cl)[C@@](O)(c1ccc(=O)n(C)c1)C(F)(F)F (relative stereo) [Example 165, 3′-Chloro-4-fluoro-4′-[3,3,3-trifluoro-2-hydroxy-1-methyl-2-(1-methyl-6-oxo-1,6-dihydro-pyridin-3-yl)-propyl]-biphenyl-3-carboxylic acid] | 28.3 nM
5 | C[C@H](c1ccc(-c2ccc(C(=O)O)cc2)cc1Cl)[C@@](O)(c1ccnc(Cl)c1)C(F)(F)F (relative stereo) [Example 50, 3′-Chloro-4′-[2-(2-chloro-pyridin-4-yl)-3,3,3-trifluoro-2-hydroxy-1-methyl-propyl]-biphenyl-4-carboxylic acid] | 48.5 nM

Further molecules by falling Ki, results first:

Row | Ki | Structure (SMILES)
6 | 72.3 nM | COc1cc(C(=O)O)ccc1COc1ccc([C@@H](C)[C@@](O)(c2cnc(C)cn2)C(F)(F)F)c(Cl)c1 (stereo in doubt) [Example 16, 4-{3-Chloro-4-[3,3,3-trifluoro-2-hydroxy-1-methyl-2-(5-methyl-pyrazin-2-yl)-propyl]-phenoxymethyl}-3-methoxy-benzoic acid]
7 | 32.3 nM | C[C@@H](c1cc(Oc2ccc(F)c(C(=O)O)c2)ccc1Cl)[C@](O)(c1ccc(=O)n(C)c1)C(F)(F)F (stereo in doubt) [Example 194, 5-{4-Chloro-3-[3,3,3-trifluoro-2-hydroxy-1-methyl-2-(1-methyl-6-oxo-1,6-dihydro-pyridin-3-yl)-propyl]-phenoxy}-2-fluoro-benzoic acid]
8 | 22.3 nM | C[C@H](c1ccc(Oc2ccc(C(=O)O)cn2)cc1Cl)[C@@](O)(c1ccc(C#N)n1C)C(F)(F)F (stereo in doubt) [Example 236, 6-{3-Chloro-4-[2-(5-cyano-1-methyl-1H-pyrrol-2-yl)-3,3,3-trifluoro-2-hydroxy-1-methyl-propyl]-phenoxy}-nicotinic acid]
9 | 6.1 nM | COc1cc(C(=O)O)ccc1COc1ccc(C(C)C(O)(c2ccnc(C)c2)C(F)(F)F)c(Cl)c1 (centres unmarked) [Example 96, 4-{3-Chloro-4-[3,3,3-trifluoro-2-hydroxy-1-methyl-2-(2-methyl-pyridin-4-yl)-propyl]-phenoxymethyl}-3-methoxy-benzoic acid]
10 | 1.5 nM | COC(=O)c1cnc(Oc2ccc([C@H](C)[C@](O)(c3cc(C)c(=O)n(C)c3)C(F)(F)F)c(Cl)c2)nc1 (relative stereo) [Example 253, 2-{3-Chloro-4-[2-(1,5-dimethyl-6-oxo-1,6-dihydro-pyridin-3-yl)-3,3,3-trifluoro-2-hydroxy-1-methyl-propyl]-phenoxy}-pyrimidine-5-carboxylic acid methyl ester]
11 | 0.4 nM | Cc1cc([C@@](O)([C@@H](C)c2ccc(Oc3ccc(F)c(C(=O)O)c3)cc2Cl)C(F)(F)F)cn(C)c1=O (relative stereo) [Example 213, 5-{3-Chloro-4-[2-(1,5-dimethyl-6-oxo-1,6-dihydro-pyridin-3-yl)-3,3,3-trifluoro-2-hydroxy-1-methyl-propyl]-phenoxy}-2-fluoro-benzoic acid]
